According to patent US20080220056A1, “Treatment for liver disease” (UNIVERSITY OF SOUTHAMPTON, priority 2002, published 2008):

Assays:
[1] = tested on: human hepatic stellate cells; experiment: Morphology of culture-activated human hepatic stellate cells (light microscopy); type: cell-based
Text: (§1) Rat hepatic stellate cells (HSCs) were isolated by pronase/collagenase perfusion and purified by isopycnic density centrifugation in Opti-prep™ (Nycomed, Amersham, England) and elutriation essentially as previously described (Bahr et al., Hepatology (1999) 29:839-848). Human hepatic stellate cells were isolated from discarded resected liver via a similar protocol (Trim et al., J. Biol. Chem., (2000) 275:6657-6663). The use of human liver tissue for scientific investigation was approved by the UK South and West Local Research Ethics Committee and was subject to patient consent.
(§2) It has been shown recently that liver myofibroblasts may contribute to liver fibrogenesis and that liver myofibroblasts may have the potential to contaminate passaged hepatic stellate cell cultures (Knittel et al., Gastronenterology, (1999) 117:1205-1221). In this study, only primary cultures of hepatic stellate cells were used, which were desmin and glial fibrillary acid protein positive (markers shown to be expressed in hepatic stellate cells, but not liver myofibroblasts—Knittel et al., supra).
Cells were treated with gliotoxin dissolved in DMSO vehicle (added to medium from a 2000-fold molar concentrated stock). Control cells received DMSO vehicle only (i.e., 0.05% vol/vol). […] Protein contents of wells were determined using the Lowry assay (Lowry et al., J. Biol. Chem., (1951)193: 265-275). […]

[2] = tested on: rat hepatic stellate cells; experiment: Low molecular weight DNA fragmentation (nucleosomal ladder) in rat hepatic stellate cells; type: cell-based
Description: Hepatic stellate cells cultured in 35-mm diameter dishes (Greiner) were harvested, pelleted by centrifugation and DNA fragmentation determined as outlined elsewhere (Elsharkawy et al., Hepatology (1999) 30:761-769). Propidium Iodide Flow-Activated Cell Sorting Analysis Detached cells were pelleted by centrifugation, washed in PBS, and resuspended in HYPO buffer (0.1% wt/vol) Na3Citrate and 0.1% (wt/vol) Triton™ X-100 containing […] propidium iodide and incubated for 1 hour. The cells were then analyzed by fluorescence-activated cell sorter (FACS) with a Becton Dickinson (San Jose, Calif.) FACScan instrument using a 488 nm excitation wavelength with a band pass filter set at 530 nm. Attached cells were scraped in HYPO buffer after washing cells with PBS.
The effect of gliotoxin on the cleavage of DNA to a nucleosomal ladder was examined because this phenomenon is characteristic of apoptosis. Culture activated (14-day) rat hepatic stellate cells in six well plates were treated with either 0.05% (vol/vol) DMSO for four hours or 1.5 μmol/L gliotoxin for zero hours, half an hour, one hour, two hours or four hours. At each time point, both detached and attached cells were harvested together and low molecular weight DNA (20,000 g supernatant) fragmentation determined as outlined in the materials and methods section. At least three separate experiments were performed. 1 kilobase DNA ladder (Promega) was used as a molecular weight marker.
The effect of various compounds on DNA laddering was then determined. Culture-activated (14-day) rat hepatic stellate cells in six-well plates were treated with:
After fours hours of treatment, DNA fragmentation was determined.
Culture activated (14 day) rat hepatic stellate cells in six well plates were treated with: • (a) 0.05% (vol/vol) DMSO; • (b) 1.5 μmol/L gliotoxin; • (c) 1.5 μmol/L gliotoxin with 100 μmol/L tamoxifen; • (d) 1.5 μmol/L gliotoxin with […] actinomycin d; • (e) 1.5 μmol/L gliotoxin with 10 μmol/L cycloheximide; • (f) 1.5 μmol/L gliotoxin with 10 μmol/L cyclosporin; • (g) 1.5 μmol/L gliotoxin with […] m-iodobenzylguanidine; • (h) 1.5 μmol/L gliotoxin with 50 μmol/L quin-2-am; • (i) 50 μmol/L guin-2-am alone; • (j) 250 μmol/L m-iodobenzylguanidine; • (k) 10 μmol/L cyclosporin; • (l) 10 μmol/L cycloheximide; • (m) 1 μg/ml actinomycin d; or • (n) 100 μmol/L tamoxifen.
After four hours of treatment, DNA fragmentation was determined as outlined in Materials and Methods.

[3] = tested on: rat hepatic stellate cells; experiment: Morphology and detachment of culture-activated rat hepatic stellate cells (light microscopy); type: cell-based
Text: as §1, §2
Cells were treated with gliotoxin dissolved in DMSO vehicle (added to medium from a 2000-fold molar concentrated stock). Control cells received DMSO vehicle only (i.e., 0.05% vol/vol). All other additions to culture medium were made from concentrated stocks dissolved in DMSO or by direct addition to culture medium. Protein contents of wells were determined using the Lowry assay (Lowry et al., J. Biol. Chem., (1951)193: 265-275).
Culture activated rat (14 day) and human (24 day) hepatic stellate cells were treated with DMSO solvent control or 1.5 μMol/L gliotoxin. […] Hepatic stellate cells changed from a flattened fibroblastic phenotype with distinct cell-cell interfaces to a substratum detached, rounded, and blebbed morphology.

hepatic stellate cells = experiment: Nerve growth factor induced apoptosis of hepatic stellate cells; type: cell-based; conditions: NGF 100 ng/ml, absolute serum deprivation
Description: Apoptosis of hepatic stellate cells was induced by absolute serum deprivation, cycloheximide treatment (Issa et al., Gut (2001) 48: S48-S57), or exposure to nerve growth factor as previously described (Trim et al., Am. J. Pathol., (2000) 156, 1235-1243). Hepatic stellate cells were cultured in 24-well tissue culture plates. Rat and human hepatic stellate cells were exposed to proapoptotic stimuli with and without recombinant TIMP-1 (Biogenesis, Poole, UK) and other manipulations as detailed below. Following a 4 hour incubation at 37° C., nuclear morphology was assessed by adding acridine orange to each well (final concentration 1 μg/ml) and observing the cells under blue fluorescence. The total number of apoptotic bodies was counted, and any apoptotic bodies floating in the supernatant were included by racking up the objective lens. The total number of cells per field was counted, and an apoptotic index was calculated. Each condition was performed in duplicate, and three high power fields were counted for each well. […] To examine for autocrine effects, hepatic stellate cells were incubated for 18 hours with azide-free polyclonal neutralizing antibodies to TIMP-1 and a nonimmune IgG control (Santa Cruz Biotechnology, Inc., Santa Cruz, Calif.), and responses were assessed by acridine orange staining and counting. […]

[4] = tested on: rat hepatic stellate cells; experiment: Hepatic stellate cell apoptosis by acridine orange staining and counting (cycloheximide or serum deprivation), rat cells; type: cell-based; conditions: rat HSC; protein at 142.5 ng/ml
Description: (§3) Human hepatic stellate cells were extracted from the margins of normal human liver resected for colonic metastatic disease as previously described (Iredale et al., Clin. Sci., (1995) 89: 75-81). Rat hepatic stellate cells were extracted from normal rat liver by Pronase and collagenase digestion and purified by centrifugal elutriation as described (Arthur et al., J. Clin. Invest., (1989) 84:1076-1085). Extracted hepatic stellate cells were cultured on plastic until they were activated to a myofibroblastic phenotype after 7 to 10 days. Human and rat hepatic stellate cells were used for experiments after activation in primary culture or before fourth passage. Cells were cultured in Dulbecco's modified Eagle's medium in the presence of 16% fetal calf serum and antibiotics.
Apoptosis of hepatic stellate cells was induced by absolute serum deprivation, cycloheximide treatment (Issa et al., Gut (2001) 48: S48-S57), or exposure to nerve growth factor as previously described (Trim et al., Am. J. Pathol., (2000) 156, 1235-1243). Hepatic stellate cells were cultured in 24-well tissue culture plates. Rat and human hepatic stellate cells were exposed to proapoptotic stimuli with and without recombinant TIMP-1 (Biogenesis, Poole, UK) and other manipulations as detailed below. Following a 4 hour incubation at 37° C., nuclear morphology was assessed by adding acridine orange to each well (final concentration 1 μg/ml) and observing the cells under blue fluorescence. The total number of apoptotic bodies was counted, and any apoptotic bodies floating in the supernatant were included by racking up the objective lens. The total number of cells per field was counted, and an apoptotic index was calculated. Each condition was performed in duplicate, and three high power fields were counted for each well. […] To examine for autocrine effects, hepatic stellate cells were incubated for 18 hours with azide-free polyclonal neutralizing antibodies to TIMP-1 and a nonimmune IgG control (Santa Cruz Biotechnology, Inc., Santa Cruz, Calif.), and responses were assessed by acridine orange staining and counting.
Apoptosis was assessed by acridine orange staining. […] A normal cell lies adjacent to the apoptotic body. This technique was used to determine the percentage of apoptotic hepatic stellate cells following exposure to cyclohexamide in the presence or absence of TIMP-1. Hepatic stellate cells were exposed to 50 μM cyclohexamide and 0, 1, 10, 100 or 200 ng/ml of TIMP-1. Cells treated with serum alone were used as controls. […] Bovine serum albumin, used as a carrier for the TIMP-1 had no antiapoptotic effect.

[5] = tested on: caspase-3 activity in hepatic stellate cells; experiment: Caspase-3 activity in cycloheximide-treated hepatic stellate cells; type: cell-based; conditions: wild type TIMP-1 or T2G mutant N-TIMP-1
Description: Apoptosis was quantified by a colorimetric assay for caspase-3 activity (Promega) according to the manufacturer's instructions.
Caspase-3 is a central caspase in the proapoptotic cascade (Hengartner, Nature (2000) 407, 770-776) and can be used as an alternative assay to assess apoptosis. Hepatic stellate cells were cultured in 50 μM cycloheximide with TIMP-1 at a concentration of 0, 1, 10, or 100 ng/ml. Controls where cells were incubated with either the caspase 3 inhibitor benzyloxycarbonyl-Val-Ala-Asp-fluoromethylketone or serum alone were also performed. Data are expressed as mean ±S.E. and are presented as percentage of control given the arbitrary value of 100%. * indicates p<0.001; n=3. […] Although the mean caspase-3 activity of the cells treated with 10 ng/ml TIMP-1 was slightly lower than that treated with 100 ng/ml of TIMP-1, this was not statistically significant (p=0.67 by Student's t test).

MMP-3 = MMP-3 (Homo sapiens, UniProt P08254); conditions: T2G versus wild type; cited from earlier work
[6] = tested on: human hepatic stellate cells; experiment: Hepatic stellate cell apoptosis by acridine orange staining and counting (cycloheximide or serum deprivation), human cells; type: cell-based; conditions: human HSC; protein at 142.5 ng/ml
Description: as §3
Apoptosis of hepatic stellate cells was induced by absolute serum deprivation, cycloheximide treatment (Issa et al., Gut (2001) 48: S48-S57), or exposure to nerve growth factor as previously described (Trim et al., Am. J. Pathol., (2000) 156, 1235-1243). Hepatic stellate cells were cultured in 24-well tissue culture plates. […] Following a 4 hour incubation at 37° C., nuclear morphology was assessed by adding acridine orange to each well (final concentration 1 μg/ml) and observing the cells under blue fluorescence. The total number of apoptotic bodies was counted, and any apoptotic bodies floating in the supernatant were included by racking up the objective lens. The total number of cells per field was counted, and an apoptotic index was calculated. Each condition was performed in duplicate, and three high power fields were counted for each well. […] To examine for autocrine effects, hepatic stellate cells were incubated for 18 hours with azide-free polyclonal neutralizing antibodies to TIMP-1 and a nonimmune IgG control (Santa Cruz Biotechnology, Inc., Santa Cruz, Calif.), and responses were assessed by acridine orange staining and counting.
Apoptosis was assessed by acridine orange staining. […]

Sequence of MMP-3 (P08254 100-477, species assumed): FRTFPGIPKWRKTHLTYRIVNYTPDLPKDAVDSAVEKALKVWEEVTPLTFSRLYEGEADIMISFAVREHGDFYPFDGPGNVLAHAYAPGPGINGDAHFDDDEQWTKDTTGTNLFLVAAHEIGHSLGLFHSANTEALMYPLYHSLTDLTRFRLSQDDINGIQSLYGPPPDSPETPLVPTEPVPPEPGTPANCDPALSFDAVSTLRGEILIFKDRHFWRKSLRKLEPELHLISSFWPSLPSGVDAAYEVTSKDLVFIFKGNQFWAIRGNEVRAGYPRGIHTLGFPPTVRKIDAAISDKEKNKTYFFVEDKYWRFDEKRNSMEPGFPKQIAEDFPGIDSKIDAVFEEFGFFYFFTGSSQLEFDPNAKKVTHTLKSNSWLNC

CS[C@]1(CO)C(=O)N2[C@H]3C(=CC=C[C@@H]3O)C[C@@]2(SC)C(=O)N1C [mt-glio, bis-dethio-bis(methylthio)-gliotoxin]
morphologic alterations ([1]; culture activated (24 day) human HSC, 1.5 μmol/L): had no effect on the morphology | cleavage of DNA to a nucleosomal ladder ([2]; rat HSC, 1.5 μmol/L, up to four hours): did not result in the cleavage of DNA to a nucleosomal ladder | morphologic alterations ([3]; culture activated (14 day) rat HSC, 1.5 μmol/L): had no effect on the morphology

S=C(S)N1CCCC1 [pyrrolidine dithiocarbamate]
effect on morphologic effects of gliotoxin ([1]; human HSC, cotreatment with gliotoxin): blocked the morphologic effects of gliotoxin | effect on gliotoxin-induced cleavage of DNA to a nucleosomal ladder ([2]; with 1.5 μmol/L gliotoxin, four hours, PDTC 300 μmol/L, tamoxifen 100 μmol/L, m-IBG 250 (mmol/L in the source), cyclosporin 10 μmol/L, quin-2-am 50 μmol/L): blocks the cleavage of DNA to a nucleosomal ladder | effect on morphologic alterations / detachment caused by gliotoxin ([3]; rat HSC, with 1.5 μmol/L gliotoxin, Z-VAD-FMK 100 μmol/L, PDTC 300 μmol/L, tamoxifen 100 μmol/L, m-IBG 250 (mmol/L in the source), quin-2-am 50 μmol/L): blocked the morphologic effects of gliotoxin

NGF: nerve growth factor, ligand of p75 on hepatic stellate cells
apoptosis in hepatic stellate cells versus BSA carrier alone (hepatic stellate cells): induced significantly more apoptosis

T2G mutant N-TIMP-1: mutated nonfunctional TIMP-1, threonine to glycine at amino acid position 2, no MMP inhibitory activity
apoptosis induced by cycloheximide (acridine orange) [4]: had no inhibitory effect | caspase-3 activity in cycloheximide-treated hepatic stellate cells [5]: no effect was observed | factor by which the mutation changes the inhibition constant of TIMP-1 for MMP-3 (MMP-3): over 1000 | apoptosis induced by cycloheximide (acridine orange) [6]: had no inhibitory effect
